Experimental data from the NIST ThermoML archive (doi:10.1021/je7006742).

Tests used:
[1] = 101 kPa, Liquid
[2] = xn = mol fraction of the nth substance listed; settings: 101 kPa, Liquid

COc1ccc(C=O)cc1 [4-methoxybenzaldehyde]
[1]
Settings | mass density [kg/m3] | viscosity [mPa·s]
298.15 K | 1120 | 3.706
308.15 K | 1112 | 2.83
318.15 K | 1105 | 2.232

O=Cc1ccccc1 [benzaldehyde] + C=CC#N
[2], x2 = 0
Settings | mass density [kg/m3] | viscosity [mPa·s]
298.15 K | 1041 | 1.399
308.15 K | 1034 | 1.224
318.15 K | 1027 | 1.12

C=CC#N [acrylonitrile] + COc1ccc(C=O)cc1
[2], x1 = 1
Settings | mass density [kg/m3] | viscosity [mPa·s]
298.15 K | 794 | 0.344
308.15 K | 788 | 0.307
318.15 K | 783 | 0.284

COc1ccc(C=O)cc1 [4-methoxybenzaldehyde] + C=CC#N
[2]
Settings | mass density, 298.15 K [kg/m3] | mass density, 308.15 K [kg/m3] | mass density, 318.15 K [kg/m3] | speed of sound, 298.15 K [m/s] | viscosity, 298.15 K [mPa·s] | viscosity, 308.15 K [mPa·s] | viscosity, 318.15 K [mPa·s]
x2 = 0 | 1120 | 1112 | 1105 | – | 3.706 | 2.83 | 2.232
x2 = 0.222 | 1079 | 1072 | 1066 | 1446.6 | 2.035 | 1.828 | 1.53
x2 = 0.391 | 1040 | 1034 | 1029 | 1384.8 | 1.341 | 1.226 | 1.095
x2 = 0.524 | 1003 | 997 | 992 | 1345.8 | 0.865 | 0.852 | 0.798
x2 = 0.631 | 968 | 962 | 957 | 1310 | 0.742 | 0.678 | 0.644
x2 = 0.72 | 934 | 930 | 924 | 1277.6 | 0.55 | 0.538 | 0.515
x2 = 0.794 | 903 | 898 | 893 | 1244.6 | 0.545 | 0.469 | 0.443
x2 = 0.857 | 873 | 868 | 864 | 1217.8 | 0.415 | 0.404 | 0.39
x2 = 0.911 | 845 | 840 | 835 | 1201.6 | 0.435 | 0.369 | 0.37
x2 = 0.958 | 819 | 813 | 808 | – | 0.379 | 0.333 | 0.322
x2 = 0.959 | – | – | – | 1186.8 | – | – | –

C=CC#N [acrylonitrile]
[1]
Settings | mass density [kg/m3] | viscosity [mPa·s]
298.15 K | 794 | 0.344
308.15 K | 788 | 0.307
318.15 K | 783 | 0.284

C=CC#N [acrylonitrile] + O=CC=Cc1ccccc1
[2], x1 = 1
Settings | mass density [kg/m3] | viscosity [mPa·s]
298.15 K | 794 | 0.344
308.15 K | 788 | 0.307
318.15 K | 783 | 0.284
